Measured values: patent EP4810493A1, “HETEROCYCLIC CARBONYL DERIVATIVE MODULATOR, PREPARATION METHOD THEREFOR, AND USE THEREOF” (Shanghai Hansoh Biomedical Co., Ltd., priority 2023, dated 2025)
Like-named read-outs stand apart in the source and are kept apart here.

Columns and labels:
M4 receptor = target: T1, M4 receptor (Homo sapiens, UniProt P08173); assay: Calcium flux (FLIPR) potentiation assay in cells stably expressing M4 receptor; assay type: cell-based
T1 construct: expressed in transfected cells
T1 sequence (P08173 1-479): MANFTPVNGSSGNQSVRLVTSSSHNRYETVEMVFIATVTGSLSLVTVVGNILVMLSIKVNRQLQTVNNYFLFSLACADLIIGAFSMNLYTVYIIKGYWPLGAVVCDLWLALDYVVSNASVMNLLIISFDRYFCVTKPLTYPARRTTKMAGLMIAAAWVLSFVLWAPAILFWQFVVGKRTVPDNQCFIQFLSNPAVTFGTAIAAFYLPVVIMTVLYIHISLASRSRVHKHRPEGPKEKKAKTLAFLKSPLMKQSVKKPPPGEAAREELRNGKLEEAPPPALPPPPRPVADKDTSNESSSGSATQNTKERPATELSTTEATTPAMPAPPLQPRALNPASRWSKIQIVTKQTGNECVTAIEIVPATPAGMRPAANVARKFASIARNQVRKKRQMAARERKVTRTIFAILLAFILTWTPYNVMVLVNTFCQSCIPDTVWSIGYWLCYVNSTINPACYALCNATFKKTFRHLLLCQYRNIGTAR
Text: Test example 1. Determination of the effect of the compounds of the present invention on calcium current in cells stably expressing M1-M5 receptors
To detect the potentiating effect of compounds on calcium flux activity in CHO-K1/human M1/3/5 and CHO-K1/Gα15 M2/4 cells.
384-well assay plate, 384-well plate, FLIPR Tip, FLIPR Penta plate reader, Dispendix non-contact nanoliter dispensing system (liquid handling workstation), liquid handler.
Ham's F-12 Nutrient Mix, foetal bovine serum, P/S (Gibco: 15140122), HBSS (Gibco: 14025076), HEPES (Gibco: 15630080), FLIPR calcium 6 assay kit (Molecular Devices: R8190), Probenecid (PBA) (Invitrogen: P36400), Acetylcholine chloride (Sigma: A6625-25G) Complete culture medium: DMEM + 10% FBS + 1X P/S; Cell seeding medium: DMEM + 10% FBS + 1X PS; Assay buffer 1: 1X HBSS + 20 mM HEPES +2.5 mM Probenecid; Assay buffer 2: 1X HBSS + 20 mM HEPES; Cell line: CHO-K1/M1; CHO-K1/M2/Gα15; CHO-K1/M3; CHO-K1/M4/Gα15; CHO-K1/M5.
FLIPR calcium 6 assay kit: Component A was dissolved in Assay buffer 1, and the mixture was shaken for 1-2 min, sub-packaged and stored at -20°C.
• 1) CHO-K1/M1; CHO-K1/M2/Gα15; CHO-K1/M3; CHO-K1/M4/Gα15; and CHO-K1/M5 cell lines were cultured separately in complete culture medium at 37°C, 5% CO2 to 70%-90% confluency. • 2) The cells were digested and resuspended in cell seeding medium, 5,000 cells/well/20 µL were seeded into a 384-well cell culture plate, and the cells were cultured at 37°C, 5% CO2 for 24 hours. • 3) The cell culture plate was taken out of the CO2 incubator and equilibrated at room temperature for 10 minutes. • 4) Component A solution was removed and allowed to equilibrate to room temperature. 20 µL of Component A solution was added to each well of the cell culture plate, and incubated at room temperature in the dark for 1 hour. • 5) Acetylcholine chloride (ACh), a muscarinic receptor agonist, was prepared in Assay buffer 2 at EC20/EC100 concentrations; subsequently, 30 µL of the prepared muscarinic receptor agonist was added to a 384-well agonist plate (PE: 6008590) using a Multidrop Combi; the working solutions of the positive control compound and the test compound were serially diluted at a 3.16-fold gradient and dispensed (450 nL) into a 384-well compound plate (PE: 6008590) using the Dispendix liquid handling workstation; 30 µL of Assay buffer 2 was added to the 384-well compound plate (PE: 6008590) using the Multidrop Combi; the positive control compound and the test compound were diluted to 6X, mixed by shaking, and placed at room temperature until use. • 6) 10 µL of the diluted 6X compound was added to the assay wells of the corresponding 384-well cell plate using the FLIPR Penta, followed by a 2-minute incubation. • 7) 10 µL of the prepared muscarinic receptor agonist was added to the assay wells of the corresponding 384-well cell plate using the FLIPR Penta, with simultaneous data acquisition.
FLIPR Penta was used to read and collect the fluorescence signal value (RFU). The maximum RFU value was used to calculate the percent activation data based on the readings of the Low control (DMSO control group) and High control (ACh EC100) experimental groups {% activation rate = (RFUsample - RFUlow control) / (RFUhigh control - RFUlow control)×100}. The test compound was diluted 3.16X in the reaction system to generate 11 concentration points ranging from 30 µM to […].

[1] = Pharmacokinetic determination in SD rats; conditions: rat, in vivo, po, male SD rats, p.o. 5 mg/kg
Description: To investigate the pharmacokinetic behaviours of the example compounds in both plasma and brain of SD rats (test animals) following oral administration at a dose of 5 mg/kg.
2.1 Test drugs: The example compounds of the present invention, made in house.
2.2 Test animals: SD Rat, male.
24 SD Rats, male; p.o. respectively at a dose of 5 mg/kg and an administration volume of 10 mL/kg after the rats were fasted overnight.
Formulation of a drug for oral administration: 0.5% CMC-Na (1% Tween 80).
0.50 g of sodium carboxymethyl cellulose (CMC-Na, viscosity: 800-1200 Cps) was weighed and dissolved in 99 mL of purified water, and 1 ml of Tween 80 was added. The components were mixed thoroughly under stirring to form a clear solution.
The example compound was weighed into a 100 mL glass vial, 80 mL of the solution was added, and the mixture was subjected to ultrasound treatment for 10 minutes to obtain a homogeneous suspension with a concentration of 0.5 mg/mL.
After the test animals were euthanised by CO2, blood samples were collected from the heart and brain tissues were harvested at 0.25 h, 0.5 h, 1 h, 2 h, 4 h, 6 h, 8 h, and 24 h post-dose. Blood was placed in EDTA-2K tubes, and centrifuged at 6000 rpm for 6 min at 4°C to separate the plasma. Brain tissues were rinsed with pre-cold PBS, blotted dry, and weighed. Both plasma and brain samples were stored at -80°C. The animals were fed 4 h after administration.
• 3) 40 uL of plasma sample was precipitated with 160 uL of acetonitrile, mixed, and centrifuged at 3500 × g for 5-20 min. Brain tissues were diluted, homogenised and centrifuged. • 4) 100 uL of the treated supernatant solution was taken for LC/MS/MS analysis to determine the concentration of the test compounds.
• Liquid phase conditions: Shimadzu LC-20AD pump • Mass spectrometry conditions: AB Sciex API 4000 mass spectrometer • Chromatographic column: Phenomenex Gemiu 5 um C18 50 × 4.6 mm • Mobile phase: solution A: 0.1% formic acid in water, solution B: acetonitrile • Flow rate: 0.8 mL/min • Elution time: 0-4.0 min, with eluents as follows:
The main pharmacokinetic parameters were calculated using WinNonlin 8.1.

[2] = CHO-K1/M4/Gα15 cells, potentiation of acetylcholine (EC20) calcium flux, read-out: M4 FLIPR EC50

| SMILES | EC50 (M4 receptor; [2]) [nM] | other results |
| --- | --- | --- |
| Cc1c2c(c3ncnn3c1C)CN(C(=O)CC1CN(c3ccnc(C(F)(F)F)c3)C1)C2 [Example 20, 1-(5,6-Dimethyl-7,9-dihydro-8H-pyrrolo[3,4-c][1,2,4]triazolo[1,5-a]pyridin-8-yl)-2-(1-(2-(trifluoromethyl)pyridin-4-yl)azetidin-3-yl)ethan-1-one] | 14.7 |  |
| Cc1c2c(c3ncnn3c1C)CN(C(=O)CC1CN(c3ccc(S(=O)(=O)C(F)F)cc3)C1)C2 [Example 25] | 9.5 |  |
| Cc1c2c(c3ncnn3c1C)CN(C(=O)c1ccc(F)c(Cl)c1)C2 [Example 29] | 37 |  |
| Cc1c2c(c3ncnn3c1C)CN(C(=O)C1CCN(c3ccncn3)C1)C2 (stereo not drawn) [Example 34] | 40.4 |  |
| CN=S(C)(=O)c1ccc(N2CC(CC(=O)N3Cc4c(C)c(C)n5ncnc5c4C3)C2)cc1 (stereo not drawn) [Example 38] | 37.9 |  |
| CCNc1nccc(N2CC(CC(=O)N3Cc4c(C)c(C)n5ncnc5c4C3)C2)n1 [Example 53] | 8 |  |
| Cc1c2c(c3ncnn3c1C)CN(C(=O)CC1CN(c3cc(NC(C)C)ncn3)C1)C2 [Example 54] | 9.6 |  |
| Cc1cn2nc(N3CC(CC(=O)N4Cc5c(C)c(C)n6ncnc6c5C4)C3)ccc2n1 [Example 55] |  | EC50 (M4 receptor): 18.1 nM |
| Cc1nc2c3c(c(C)c(C)n2n1)CN(C(=O)CC1CN(c2ccnc(C(F)(F)F)c2)C1)C3 [Example 57] | 18 |  |
| Cc1c2c(c3nccn3c1C)CN(C(=O)CC1CN(c3ccnc(C(F)(F)F)c3)C1)C2 [Example 60, 1-(5,6-Dimethyl-7,9-dihydro-8H-imidazo[1,2-a]pyrrolo[3,4-c]pyridin-8-yl)-2-(1-(2-(trifluoromethyl)pyridin-4-yl)azetidin-3-yl)ethan-1-one] | 8.8 |  |
| Cc1c2c(c3ncnn3c1C)CN(C(=O)CC1CN(c3ccnc(S(=O)(=O)N(C)C)c3)C1)C2 [Example 61] | 10.6 |  |
| Cc1c2c(c3nccn3c1C)CN(C(=O)CC1CN(c3ccnc(OC(F)F)c3)C1)C2 [Example 70] | 73.6 |  |
| Cc1c2c(c3nccn3c1C)CN(C(=O)OC1CN(c3ccnc(C(F)(F)F)c3)C1)C2 [Example 71] | 71.9 |  |
| Cc1c2c(c3nccn3c1C)CN(C(=O)OC1CN(c3ccnc(OC(F)F)c3)C1)C2 [Example 72] | 87.5 |  |
| Cc1c2c(c3ncnn3c1C)CN(C(=O)CC1CN(c3ccnc(C4CCCCO4)c3)C1)C2 (stereo not drawn) [Example 100] | 18.4 |  |
| Cc1c2c(c3nccn3c1C)CN(C(=O)CC1CN(c3ccnc(C(F)F)c3)C1)C2 [Example 101] | 33.5 |  |
| Cc1c2c(c3ncnn3c1C)CN(C(=O)C[C@@H]1C[C@H]1c1ccc(F)nc1)C2 [Example 103, 1-(5,6-Dimethyl-7,9-dihydro-8H-pyrrolo[3,4-c][1,2,4]triazolo[1,5-a]pyridin-8-yl)-2-((1S,2R)-2-(6-fluoropyridin-3-yl)cyclopropyl)ethan-1-one] | 24.4 |  |
| Cc1c2c(c3nccn3c1C)CN(C(=O)CC1CC1c1ccc(F)nc1)C2 (stereo not drawn) [Example 104] |  | EC50 (M4 receptor): 53.8 nM |
| Cc1cn2nc(N3CC(CC(=O)N4Cc5c(C)c(C)n6nc(C)nc6c5C4)C3)ccc2n1 [Example 127] | 15.2 |  |
| Cc1nc2c3c(c(C)c(C)n2n1)CN(C(=O)C1CCN(c2ccncn2)C1)C3 (stereo not drawn) [Example 140] | 51.7 |  |
| Cc1c2c(c3ccnn3c1C)CN(C(=O)OC1CN(c3ccnc(C(F)F)c3)C1)C2 [Example 142] |  | AUC(0-inf) [1]: 9320 ng·h/mL; Cmax [1]: 1380 ng/mL; Tmax [1]: 2 h; MRT inf ([1]; read-out: MRT 0-∞): 4.4 h |
| Cc1c2c(c3ncnn3c1C)CN(C(=O)OC1CN(c3cc(Cl)ncc3Cl)C1)C2 [Example 187] |  | EC50 (M4 receptor): 28.2 nM |

Continued, in another order:

| EC50 (M4 receptor; [2]) [nM] | SMILES | other results |
| --- | --- | --- |
| 30.9 | Cc1c2c(c3nc(C4CC4)nn3c1C)CN(C(=O)CC1CN(c3ccnc(C(F)(F)F)c3)C1)C2 [Example 143] |  |
| 27.4 | Cc1c2c(c3nc(N)nn3c1C)CN(C(=O)CC1CN(c3ccnc(C(F)(F)F)c3)C1)C2 [Example 145] |  |
| 12.4 | Cc1c2c(c3ncnn3c1C)CN(C(=O)CC1CN(c3cc(Cl)ncc3Cl)C1)C2 [Example 146] |  |
| 37.7 | Cc1c2c(c3nnnn3c1C)CN(C(=O)CC1CN(c3ccnc(C(F)(F)F)c3)C1)C2 [Example 148] |  |
| 83.8 | Cc1cn2cc(N3CC(OC(=O)N4Cc5c(C)c(C)n6ncnc6c5C4)C3)ccc2n1 [Example 178] |  |
| 57.1 | Cc1c2c(c3nnnn3c1C)CN(C(=O)OC1CN(c3ccnc(OC(F)F)c3)C1)C2 [Example 179] |  |
| 69.5 | Cc1c2c(c3ncnn3c1C)CN(C(=O)OC1CN(c3cc(C(F)(F)F)ncc3Cl)C1)C2 [Example 180] |  |
| 25.9 | Cc1c2c(c3nc(N)nn3c1C)CN(C(=O)CC1CN(c3ccnc(OC(F)F)c3)C1)C2 [Example 181] |  |
| 44.1 | Cc1c2c(c3ncnn3c1C)CN(C(=O)OC1CN(c3cc(C(F)F)ncc3Cl)C1)C2 [Example 184] |  |
| 11.1 | Cc1c2c(c3ncnn3c1C)CN(C(=O)CC1CN(c3ccnc(OCC(F)F)c3)C1)C2 [Example 185] |  |
| 28.8 | Cc1c2c(c3ncnn3c1C)CN(C(=O)CC1CN(c3ccnc(OCC(F)(F)F)c3)C1)C2 [Example 186] |  |
| 73.2 | Cc1c2c(c3ncnn3c1C)CN(C(=O)OC1CN(c3ccc4nc(CF)cn4n3)C1)C2 [Example 190] |  |
| 39.4 | Cc1cn2nc(N3CC(OC(=O)N4Cc5c(C)c(C)n6nccc6c5C4)C3)ccc2n1 [Example 200] |  |
| 56.4 | Cc1cn2nc(N3CC(CC(=O)N4Cc5c(C)c(C)n6nccc6c5C4)C3)ccc2n1 [Example 201] |  |
